Data reported in paper PMC6934184, “Selective DNA-PKcs inhibition extends the therapeutic index of localized radiotherapy and chemotherapy” (The Journal of Clinical Investigation, 2019).

Target: T1, MAP2K1 (MEK1) (Homo sapiens, UniProt Q02750)
T1 construct: purchased Thermo Fisher Scientific (Life Technologies) SelectScreen
Assay: SelectScreen Z'LYTE
Assay type: biochemical
Settings: ATP 100 µM
Procedure, shortened: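 Compound tested in SelectScreen activity assays, Z'LYTE for CSF1R, CDK1/cyclin B and MAP2K6 and Adapta for CAMK1. ATP for CAMK1 was listed as 10, and Km app was used for CSF1R. Results are expressed in percent.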

T1 sequence (Q02750 whole entry): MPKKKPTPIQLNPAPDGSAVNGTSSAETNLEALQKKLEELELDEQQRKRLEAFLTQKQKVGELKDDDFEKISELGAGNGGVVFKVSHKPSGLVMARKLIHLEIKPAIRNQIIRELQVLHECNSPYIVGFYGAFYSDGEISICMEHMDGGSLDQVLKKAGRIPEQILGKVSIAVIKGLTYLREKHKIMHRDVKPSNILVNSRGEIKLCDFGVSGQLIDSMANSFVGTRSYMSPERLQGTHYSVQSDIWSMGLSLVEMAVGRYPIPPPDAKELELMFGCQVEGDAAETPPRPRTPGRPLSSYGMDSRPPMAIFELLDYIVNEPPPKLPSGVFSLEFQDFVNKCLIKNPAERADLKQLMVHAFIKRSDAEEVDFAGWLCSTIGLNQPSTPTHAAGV

**Q.** Which inhibition at 1 µM does the source give for `CN(C(=O)CN1CCOCC1)c1ccc2sc3c(-c4cccc5c(=O)cc(N6CC7CCC(C6)O7)oc45)cccc3c2c1` [NU5455] here?
**A.** Its inhibition at 1 µM is 8.8%.
